# In US5567688A, “L-nucleosides for the treatment of hepatitis B-virus” (priority 1995, dated 1996):
# Like-named read-outs stand apart in the source and are kept apart here.
# How the values were obtained:
# EBV = test: Inhibition of EBV production in H1 cells (bioassay, EBV DP activity in superinfected Raji cells); type: cell-based; settings: for IC90: human gammaherpesvirus 4, Raji, 120 h
# Description: (§1) H1 cells were maintained in […] growth for two days prior to the initiation of treatment. The cells were centrifuged at 600 g for 10 min. at room temperature to separate them from the medium containing pre-existing virus particles. The H1 cells were seeded in 24 well plates at a density of 1×10^5 cells per well in 2 ml of fresh medium with or without drug and incubated at 37° C. for 5 days. The medium containing virion was saved and used for evaluating the inhibitory effect of drugs on virus production and infectivity by use of a bioassay. The virion were pelleted from the cell free medium by centrifugation at 45,000 rpm for 90 min. in a SW-50 Ti rotor (Beckman). The virion were resuspended in 1 ml growth medium and then used to infect 1×10^6 Raji cells for 48 hours. Since the level of EBV DP activity in Raji cells post superinfection is proportional to the number of virions added (unpublishedresult), the EBV specific DP activity induced was able to be measured. The inhibitory drug effect Was calculated by comparing the EBV DP activity to multiple dilution controls.
# Inhibitory effect of compounds on EBV: The CD50 was performed by
# exposing H1 cells to different concentrations of the compounds in normal
# growth medium at 37° C. for 72 hours; the cells were then counted
# and compared with controls. H1 cells were treated for 5 days and the
# ID90 was determined by bioassay.
# HBV = test: Inhibition of HBV DNA in 2.2.15 cells (Southern analysis); type: cell-based, HBV (human hepatoma 2.2.15 cells); settings: for Therapeutic Index (DC50/ID50): HBV, CD50 / anti-HBV ID50; for IC50: Hepatitis B virus, 144 h, 2.2.15 cells, 6-day treatment, 50% inhibition of the DNA, read-out: Anti-HBV Activity ID50
# Description: Human hepatoma cells with HBV (2.2.15 cells) were used in the assay. These cells were grown to confluence in minimal essential medium with 10% fetal bovine serum. The media was changed at 3-day intervals. At confluence the treatment with the drugs was initiated and then continued for three days. Another addition of the same concentration of the drug was given at this point after removal of the media from the cultures and cultures maintained for an additional period of 3 days. The medium after the 6-day treatment was harvested and the viral particles precipitated by the polyethylene glycol method. The particles were subsequently digested and then processed for Southern analysis. The blots were hybridizied to an HBV-specific probe and vital DNA amounts assessed in comparison to DNA levels from cultures not treated with the drugs. The genomic DNA was digested with Hind III and subjected to Southern analysis. Levels of the episomal DNA were determined in relation to the integrated HBV DNA. The drug concentrations that cause 50% inhibition of the DNA (ID50) as compared to the controls were calculated.
# [1] = Cytotoxicity in H1 cells (cell count); type: cell-based; settings: 37° C., read-out: CD50
# [2] = Cytotoxicity in MT2 cells (CD50); type: cell-based; settings: human
# [3] = Cytotoxicity (CD50) of Table I, cell line not given; type: cell-based
# [4] = Cytotoxicity in CEM cells (CD50); type: cell-based; settings: human
# mitochondrial DNA = test: Mitochondrial DNA content in H1 cells (slot blot assay); type: cell-based, human; settings: 1 mM, 6 days
# Description: as §1
# Slot Blot Assay--The amount of mitochondrial DNA was measured by the slot blot method (2). […] The amount of mitochondrial DNA in the treated and non-treated H1 cells was quantified by densitometer (LKB Ultroscan XL).
# [5] = EBV, H1 cells treated for 5 days, bioassay, read-out: ID90 (the source's name)
Compound,IC90 (EBV; [5]),"Therapeutic Index (CD50/ID90) (EBV; EBV, H1 cells)",Therapeutic Index (DC50/ID50) (HBV),IC50 (HBV),CC50 at 72 h [1],CC50 [2],CC50 [3],CC50 [4],IC90 (EBV; read-out: ID90),"Inhibitory effect on EBV (in words) (EBV; EBV, H1 cells, up to 100 μM)",Inhibition of mitochondrial DNA content in H1 cells (mitochondrial DNA)
Nc1nc2c(ncn2COCCO)c(=O)[nH]1 [ACV],50 ± 8 µM,,,,,,,,,,
CCc1cn([C@@H]2O[C@H](CO)[C@@H](O)[C@@H]2F)c(=O)[nH]c1=O [D-FEAU],1 µM,> 400,> 80,5 µM,> 400 µM,100 µM,> 400 µM,90 µM,,,
Cc1cn([C@@H]2O[C@H](CO)[C@@H](O)[C@@H]2F)c(=O)[nH]c1=O [D-FMAU],0.1 µM,< 100,< 5,,< 10 µM,8 to 9 µM,< 10 µM,10 µM,,,
Nc1nc2c(ncn2COC(CO)CO)c(=O)[nH]1 [DHPG],5 ± 1 µM,,,,,,,,,,
"CCc1cn([C@H]2O[C@@H](CO)[C@H](O)[C@H]2F)c(=O)[nH]c1=O [L-FEAU, N1-(2'-Deoxy-2'-fluoro-β-L-arabinofuranosyl)-5-ethyluracil]",,20,> 80,> 5 µM,> 400 µM,100 µM,> 400 µM,> 100 µM,20 µM,,
"Nc1nc(=O)n([C@H]2O[C@@H](CO)[C@H](O)[C@H]2F)cc1I [L-FIAC, N1-(2'-Deoxy-2'-fluoro-β-L-arabinofuranosyl)-5-iodocytosine]",,,,,,,,,,inactivity up to 100 μM,
"Cc1cn([C@H]2O[C@@H](CO)[C@H](O)[C@H]2F)c(=O)[nH]c1=O [L-FMAU, N1-(2'-Deoxy-2'-fluoro-β-L-arabinofuranosyl)-thymine]",5 ± 0.8 µM,182,9130,,913 ± 70 µM,100 µM,913 ± 70 µM,> 100 µM,,,No inhibition
Nc1nc2c(ncn2CCC(CO)CO)c(=O)[nH]1 [PCV],20 ± 2 µM,,,,,,,,,,
O=C(O)P(=O)(O)O [PFA],75 ± 5 µM,,,,,,,,,,
